Measurements taken from article PMC4069242 (Clinical and experimental allergy : journal of the British …, 2014).
Where no end group is shown, it is not given here.

Biological target: DR04:01 protein (Homo sapiens, UniProt P01903+P01911, A100K/A169T/F76Y/I96L/K127E/L162R/M171V/N62H/P40V/Q125Y/R42H/S133A/S149N/S66Y/V115G/V209L/W38E)
Assay: Peptide binding assay

| IC50 [nM] | Compound |
| --- | --- |
| 116 | AAFRIAATAANAA [Holl 5a 167-186] |
| 970 | AAFRTAATAADAA [Hor v 5a 167-186] |
| 50 | AAYKIAATAANAA [Dac g 5a 167-186] |
| 532 | AAYRTAATAANAA [Lol p 5a 167-186] |
| 105 | EAYKFIPSLETAV [Holl 5a 199-218] |
| 51 | ETYKFIPSLEAAV [Pha a 5a 199-218] |

The next lines start with the compound.

| Compound | IC50 [nM] |
| --- | --- |
| CC[C@H](C)[C@H](NC(=O)[C@@H](NC(=O)[C@H](CC(=O)O)NC(=O)[C@H](CCC(=O)O)NC(=O)[C@H](C)NC(=O)[C@H](CCC(=O)O)NC(=O)[C@@H](N)[C@@H](C)O)C(C)C)C(=O)N1CCC[C@H]1C(=O)N[C@@H](CCC(=O)O)C(=O)NCC(=O)N[C@@H](Cc1c[nH]c2ccccc12)C(=O)N[C@@H](CCCCN)C(=O)N[C@@H](C)C(=O)N[C@@H](CC(=O)O)C(=O)N[C@H](C(=O)N[C@@H](CO)C(=O)N[C@@H](Cc1ccc(O)cc1)C(=O)N[C@@H](CCC(=O)O)C(=O)N[C@@H](CO)C(=O)N[C@@H](CCCCN)C(=O)O)[C@@H](C)O [Phl p 1 221-240] | 2920 |
| DSYKFIPTLVAAV [Lol p 5a 199-218] | 410 |
| EEPIAPYHFDLSGHAFGAMA [Phl p 1 97-116] | 275 |
| EEPIAPYHFDLSGHAFGSMA [Lol p 1 97-116] | 435 |
| ESYKFIPALEAAV [Hor v 5a 199-218] | 990 |
| ESYKFIPALEAAV [Phl p 5a 199-218] | 970 |
| ESYKFIPTLEAAV [Dac g 5a 199-218] | 74.6 |
| SEFEDVIPEGWKADTSYSAK [Lol p 1 221-240] | 2920 |
| SEVEDVIPEGWKADTSYEAK [Dac g 1 221-240] | 177 |
